Experimental data taken from patent publication US20020028851A1, “Guanylhydrazones and their use to treat inflammatory conditions” (priority 1994, published 2002).
Read-outs that look alike come from different tables or passages of the source. Values belong to the compound of their own block, whether it stands above or below them.

Assays:
[1] = system: Endothelial Derived Relaxing Factor (EDRF) activity; test: Acetylcholine-induced hypotensive (EDRF) response; assay type: in vivo, rats; conditions: 10 mg/Kg single intra-arterial dose; blood pressure 30 sec after ACh
Description: Female Sprague-Dawley rats (225-250 g body weight) were anesthetized with nembutal (50 mg/Kg, i.p.), a tracheostomy tube was inserted, and the carotid artery and jugular vein cannulated by standard methods using polyethylene tubing (PE 50). Tracey, K. J., et al., 1986, SCIENCE 234, 470-474. Blood pressure was recorded continuously with a pressure transducer and recorder (Model RS-3200, Gould Inc.,). In the experiment shown here, animals received a single sterile intra-arterial dose of either N^G-methyl-L-arginine (NMA; Sigma; 10 mg/Kg), Compound No. 14 (50 mg/Kg), or vehicle (0.4 ml). Acetylcholine (ACh) diluted in LPS-free sterile water was administered via the jugular vein cannula at the doses indicated. The solutions were diluted to produce a constant injectable volume of 1 ml/Kg body weight.
The hypotensive (EDRF) response was measured as the decline in mean arterial blood pressure recorded 30 sec after administration of ACh. The number of animals studied at each dose of acetylcholine was 4-6 for each experimental condition; data are expressed as the mean +s.e.m.

[2] = system: TNF; test: TNF production by LPS/γIFN-stimulated RAW 264.7 cells; assay type: cell-based, murine; conditions: even at concentrations of 10 μM
Description: RAW 264.7 cells were plated in standard 6-well culture plates at a density of 10^6/well and allowed to adhere for from 2 hr to overnight. The medium was then replaced with medium containing the compound to be tested. One hour later, the medium was supplemented so as to contain 25 U/ml γIFN and 0.1 μg/ml LPS and the cultures incubated a further 18 hr. The medium was then collected, and cell debris removed by centrifugation. This conditioned supernatant was then assayed for the presence of TNF using standard methodologies: L929 cell cytotoxicity bioassay, radioimmunoassay or ELISA, and Western blotting with antibodies against murine TNF.

[3] = system: RAW 264.7 cells; test: Whole cell inhibition assay for urea output; assay type: cell-based, murine; conditions: for urea % suppression of induced production: γIFN+LPS, 18 hours; for IC50: interpolated, γIFN+LPS-activated RAW 264.7, 18 hours, read-out: I.C.50 (in parenthesis), inhibition of urea production
Description: (§1) RAW 264.7 cells are plated in microculture wells at 1×10^6/ml in RPMI 1640 with 10% FBS and otherwise standard culture conditions and allowed to adhere for 5 hours. They are then activated with 25 U/ml γIFN and 0.1 μg/ml LPS in the presence of test inhibitors. The urea concentration present in the supernatant media, after 18 hours of culture, is determined by a colorimetric blood urea nitrogen diacetylmonoxime assay performed on an aliquot of the culture supernatant (Sigma Chem. Co., St. Louis, Mo.) and inhibition is expressed as the percentage urea compared to that of a parallel control culture treated identically except that the concentration of added inhibitor is zero.
(§2) Various concentrations of the test compounds are included in the media of the stimulated RAW 264.7 cells in culture. The concentration of urea and/or nitrite after 18 hours of activated culture is determined and compared to the uninhibited control value obtained from at least one parallel culture. The fractional reduction is calculated for each concentration of inhibitor and the IC50 (concentration giving 50% reduction) is interpolated. Compounds were dissolved in media with mild heat (60° C.). Those with limited solubility were dissolved in base. The concentration of stock solutions of those compounds which were not completely soluble was determined by OD280.

[4] = Solubility on preparing test solutions; assay type: physicochemical; conditions: preparation of test solutions
Description: as §2

[5] = system: RAW 264.7 cells; test: Whole cell inhibition assay for arginine uptake; assay type: cell-based, murine; conditions: γIFN+LPS, 8 hours
Description: In the embodiment described in the working example herein, a test population of cells was cultured for about 3 hours so that the cells became firmly adherent. Various concentrations of the potential inhibitors were then added to parallel cultures. One hour later the macrophage stimulators, e.g. including, but not limited to LPS and γIFN, were added. Eighteen hours later the cells were washed in a warm balanced salt solution supplemented with glucose. Carrier-free radiolabelled arginine was added; after 5 minutes, active uptake of arginine was stopped by washing the cell three times with buffer, chilled to 0° C., containing 10 mM unlabeled arginine to displace any externally bound label. The contents of the washed cells are solubilized in 100 μl of formic acid and counted by standard techniques.
RAW 264.7 cells are plated in standard 96-well microculture plates at a concentration of 10^5/well and allowed to adhere for from 2 hours to overnight. The medium is then replaced with medium containing the compound to be tested. One hour later, the medium is supplemented so as to contain 25 U/ml γIFN and 0.1 μg/ml LPS and the cultures incubated a further. The cells are then rinsed twice in HEPES- buffered Krebs salt solution with 0.1% glucose. Carrier-free tetra-^3H-arginine is added to each well (2.5 μCi/well with specific activity of […]) and the active uptake of arginine is allowed to continue for a 5 minute period after which the cells are rapidly cooled to 0° C. by lavage with iced saline containing 10 mM unlabeled arginine to displace any externally bound label. The contents of the washed cells are solubilized in 100 Al of formic acid and counted by standard techniques. In subsequent experiments to determine the acitivity of the inhibitors, incubations were performed for 8 hours.
(§3) This section describes experiments that measure the concentration of Compound No. 14 needed to inhibit arginine uptake and NO output. The techniques employed were described in section 7.1 supra.

[6] = system: RAW 264.7 cells; test: Whole cell inhibition assay for NO (nitrite) output; assay type: cell-based, murine; conditions: γIFN+LPS, 18 hours
Description: as §1
The production of nitrite is determined by assay of the same tissue culture supernatant by means of a calorimetric assay. Briefly, 4 parts of test solution containing 1% (w/v) sulfanilamide, 0.1% naphthylethylenediamine di-HCl (Griess Reagent), 2.5% H3PO4 and one part media are mixed, incubated for 10 minutes and the absorbance at 560 nm determined. The nitrite concentrations are interpolated from reference curves prepared using NaNO2.
as §2, §3

[7] = dose 23.3 (dose unit not given)

SMILES: CNC(=N)NCCC[C@H](N)C(=O)O [NMA, N^G-methyl-L-arginine, reference compound]
acetylcholine-induced EDRF activity in vivo [1]: inhibited | inhibition of the production of TNF [2]: did not inhibit

SMILES: COc1ccc(C=NNC(=N)N)cc1OCCCCCOc1cc(C=NNC(=N)N)ccc1OC.Cl.Cl
melting point: 195 to 198 °C

SMILES: CC(=O)c1cc(NC(=O)NCCN(CCNC(=NNC(=N)N)Nc2cc(C(C)=NNC(=N)N)cc(C(C)=NNC(=N)N)c2)CCNC(=NNC(=N)N)Nc2cc(C(C)=NNC(=N)N)cc(C(C)=NNC(=N)N)c2)cc(C(C)=O)c1.Cl.Cl.Cl.Cl.Cl.Cl.Cl (hydrate or solvate)
melting point: 245 to 246 °C (dec.)

SMILES: CC(=O)c1ccc(NC(=O)NCCCN(CCCNC(=NNC(=N)N)Nc2ccc(C(C)=O)cc2)CCCNC(=NNC(=N)N)Nc2ccc(C(C)=NNC(=N)N)cc2)cc1.Cl.Cl.Cl (hydrate or solvate)
melting point: 209 to 210 °C (dec.)

SMILES: CC(=NNC(=N)N)c1cc(NC(=N)NC(=N)N)cc(C(C)=NNC(=N)N)c1.Cl.Cl.Cl
melting point: 294 to 297 °C

SMILES: CC(=O)c1ccc(NC(=O)NCCN(CCNC(=NNC(=N)N)Nc2ccc(C(C)=O)cc2)CCNC(=NNC(=N)N)Nc2ccc(C(C)=NNC(=N)N)cc2)cc1.Cl.Cl.Cl (hydrate or solvate)
melting point: 224 to 225 °C (dec.)

More lines, main results first:

IC50 [3]: 10 µM | Dissolved in (solubility) [4]: Not soluble;
SMILES: CC(=NNC(=N)N)c1cccc(OCCOc2cccc(C(C)=NNC(=N)N)c2)c1.Cl.Cl [Compound 15, 2,2′-[1,2-ethanediylbis(oxy-3,1-phenyleneethylidyne)] bishydrazinecarboximidamide dihydrochloride]
urea % suppression of induced production ([3]; dose 5 μM): 8% | urea % suppression of induced production ([3]; dose 15.0 μM): 100% | urea % suppression of induced production ([3]; dose 150 μM): 100% | arginine transport % suppression of induced peak ([5]; dose 5 μM): 10% | arginine transport % suppression of induced peak ([5]; dose 15.0 μM): 35% | arginine transport % suppression of induced peak ([5]; dose 150 μM): 100% | no2/no3 % suppression of induced production ([6]; dose 5 μM): 0% | no2/no3 % suppression of induced production ([6]; dose 15.0 μM): 9% | no2/no3 % suppression of induced production ([6]; dose 150 μM): 100%

melting point: 187 to 191 °C
SMILES: CC(=O)c1cccc(NC(CCCC(=NNC(=N)N)Nc2cccc(C(C)=O)c2)=NNC(=N)N)c1.Cl.Cl [Compound 12, N,N′-bis(3-acetylphenyl)pentanediamide bis(amidinohydrazone) dihydrochloride]

IC50 ([3]; Mus musculus, RAW264.7): 1 to 10 µM | melting point: 264 to 266 °C | Dissolved in (solubility) [4]: Not soluble;
SMILES: Cl.Cl.N=C(N)NN=Cc1cccc(OCCOc2cccc(C=NNC(=N)N)c2)c1 [Compound 16, 3,3′-(ethylenedioxy)dibenzaldehyde bis(amidinohydrazone) dihydrochloride]
urea % suppression of induced production ([3]; dose 5 μM): 40% | urea % suppression of induced production ([3]; dose 25 μM): 100% | urea % suppression of induced production ([3]; dose 250 μM): 100% | arginine transport % suppression of induced peak ([5]; dose 5 μM): 26% | arginine transport % suppression of induced peak ([5]; dose 25 μM): 44% | arginine transport % suppression of induced peak ([5]; dose 250 μM): 100% | no2/no3 % suppression of induced production ([6]; dose 5 μM): 17% | no2/no3 % suppression of induced production ([6]; dose 25 μM): 90% | no2/no3 % suppression of induced production ([6]; dose 250 μM): 100%

IC50 ([3]; Mus musculus, RAW264.7): 150 µM | melting point: 322 to 323 °C (dec.) | Dissolved in (solubility) [4]: Not soluble
SMILES: COc1cc(C=NNC(=N)N)ccc1OCCOc1ccc(C=NNC(=N)N)cc1OC.Cl.Cl [Compound 17, 4,4′-(ethylenedioxy)di-m-anisaldehyde bis(amidinohydrazone) dihydrochloride]
urea % suppression of induced production ([3]; dose 177 μM): 54-100% | no2/no3 % suppression of induced production ([6]; dose 177 μM): 71-87%

IC50 ([3]; Mus musculus, RAW264.7): 25 µM | melting point: 233 to 235 °C | Dissolved in (solubility) [4]: Not soluble
SMILES: COc1ccc(C=NNC(=N)N)cc1OCCCOc1cc(C=NNC(=N)N)ccc1OC.Cl.Cl [Compound 18, 3,3′-(trimethylenedioxy)di-p-anisaldehyde bis(amidinohydrazone) dihydrochloride]
urea % suppression of induced production ([3]; dose 233 μM): 100% | urea % suppression of induced production ([3]; dose 7.7 (dose unit not given)): 9% | urea % suppression of induced production [3, 7]: 30% | no2/no3 % suppression of induced production ([6]; dose 233 μM): 100% | no2/no3 % suppression of induced production ([6]; dose 7.7 (dose unit not given)): 0% | no2/no3 % suppression of induced production [6, 7]: 13%

IC50 ([3]; Mus musculus, RAW264.7): 300 µM | melting point: 285 to 286 °C
SMILES: Cl.Cl.N=C(N)NN=C(CCC(=NNC(=N)N)c1ccccc1)c1ccccc1 [Compound 20, 2,2′-(1,4-diphenyl-1,4-butanediylidene)bishydrazinecarboximidamide dihydrochloride]
urea % suppression of induced production ([3]; dose 10 μM): 16% | urea % suppression of induced production ([3]; dose 50 μM): 19% | urea % suppression of induced production ([3]; dose 200 μM): 38% | urea % suppression of induced production ([3]; dose 400 μM): 100% | no2/no3 % suppression of induced production ([6]; dose 10 μM): 0% | no2/no3 % suppression of induced production ([6]; dose 50 μM): 0% | no2/no3 % suppression of induced production ([6]; dose 200 μM): 15% | no2/no3 % suppression of induced production ([6]; dose 400 μM): 84%
